This is an account of results in ChEMBL document CHEMBL1124073, “Synthesis and copper-dependent antimycoplasmal activity of 1-amino-3-(2-pyridyl)isoquinoline derivatives. 1. Amides” (1988).

Values after ≈ are worked out from the molar mass of the structure shown.

In test [1] the test system is Mycoplasmoides gallisepticum. In words: Antimycoplasmal activity against Mycoplasma gallisepticum K514 without the extra addition of copper. It counts as functional.
Test [2] concerns Mycoplasmoides gallisepticum. In words: Antimycoplasmal activity against Mycoplasma gallisepticum K514 with the extra addition of copper (40 uM). It counts as functional.

Turning to `CC(C)(C)C(=O)Nc1nc(-c2ccccn2)cc2ccccc12`, the figures for the MIC in test [1] and in test [2] were above 25 µM and 0.21 µM (≈ 0.0641 µg/mL), respectively.

Regarding `COc1ccc(C(=O)Nc2nc(-c3ccccn3)cc3ccccc23)cc1`, the minimum inhibitory concentration (MIC) in test [1] is above 160 µM; in test [2], 0.18 µM (≈ 0.064 µg/mL).

Regarding `CCCCC(CC)C(=O)Nc1nc(-c2ccccn2)cc2ccccc12` (stereo not drawn), the minimum inhibitory concentration (MIC) was above 170 µM in test [1] and 0.36 µM (≈ 0.125 µg/mL) in test [2].

For the compound `O=C(Nc1nc(-c2ccccn2)cc2ccccc12)c1ccccc1`, the values for the MIC in test [1] and in test [2] were 12.3 µM (≈ 4.01 µg/mL) and 0.1 µM (≈ 0.0325 µg/mL), respectively.

As for `CC(=O)Nc1nc(-c2ccccn2)cc2ccccc12`, the minimum inhibitory concentration (MIC) was above 25 µM in test [1] and 1.9 µM (≈ 0.5 µg/mL) in test [2].

On to `Cc1ccc(C(=O)Nc2nc(-c3ccccn3)cc3ccccc23)c(C)c1`, for which the MIC was above 100 µM in test [1] and 0.39 µM (≈ 0.138 µg/mL) in test [2].

Take `O=C(Nc1nc(-c2ccccn2)cc2ccccc12)c1cccc(Cl)c1`: the minimum inhibitory concentration (MIC) in test [1] was above 23 µM; in test [2] it was 0.35 µM (≈ 0.126 µg/mL).

In the case of `Nc1nc(-c2ccccn2)cc2ccccc12`, the minimal inhibitory concentration (MIC) in test [1] stood at 452 µM (≈ 100 µg/mL); in test [2], 0.45 µM (≈ 0.0996 µg/mL).

As for `Cc1cccc(C)c1C(=O)Nc1nc(-c2ccccn2)cc2ccccc12`, the minimal inhibitory concentration (MIC) was above 25 µM in test [1] and 0.78 µM (≈ 0.276 µg/mL) in test [2].

For `CCCCCCCCCC(=O)Nc1nc(-c2ccccn2)cc2ccccc12`, the MIC is above 170 µM in test [1] and 0.34 µM (≈ 0.128 µg/mL) in test [2].

Turning to `CCC(=O)Nc1nc(-c2ccccn2)cc2ccccc12`, the MIC in test [1] is above 25 µM; in test [2] it was 0.45 µM (≈ 0.125 µg/mL).

Turning to `Cc1ccc(C(=O)Nc2nc(-c3ccccn3)cc3ccccc23)cc1`, the MIC in test [1] is above 160 µM; in test [2], 0.19 µM (≈ 0.0645 µg/mL).

On to `CC(C)C(=O)Nc1nc(-c2ccccn2)cc2ccccc12`, for which the minimal inhibitory concentration (MIC) is above 25 µM in test [1] and 0.22 µM (≈ 0.0641 µg/mL) in test [2].

Take `COc1cccc(C(=O)Nc2nc(-c3ccccn3)cc3ccccc23)c1`: the MIC is above 23 µM in test [1] and 0.18 µM (≈ 0.064 µg/mL) in test [2].

With CUPRIC SULFATE, in test [1], the MIC was found to be 400 µM.

With `Cc1ccc(C)c(C(=O)Nc2nc(-c3ccccn3)cc3ccccc23)c1`, the MIC in test [1] is above 100 µM; in test [2] it was 0.39 µM (≈ 0.138 µg/mL).

On to `CC[C@H]1OC(=O)C[C@@H](O)[C@H](C)[C@@H](O[C@@H]2O[C@H](C)[C@@H](O[C@H]3C[C@@](C)(O)[C@@H](O)[C@H](C)O3)[C@H](N(C)C)[C@H]2O)[C@@H](CC=O)C[C@@H](C)C(=O)/C=C/C(C)=C/[C@@H]1CO[C@@H]1O[C@H](C)[C@@H](O)[C@@H](OC)[C@H]1OC` [TYLOSIN], for which the MIC in test [1] and in test [2] was 0.1 µM (≈ 0.0916 µg/mL) in each case.

Turning to `O=C(Nc1nc(-c2ccccn2)cc2ccccc12)c1ccc(Cl)c(Cl)c1`, the results for the minimum inhibitory concentration (MIC) in test [1] and in test [2] were above 160 µM and 0.64 µM (≈ 0.252 µg/mL), respectively.

`O=C(Nc1nc(-c2ccccn2)cc2ccccc12)c1ccc(Cl)cc1`: the MIC is above 160 µM in test [1] and 0.35 µM (≈ 0.126 µg/mL) in test [2].

Consider `Cc1ccc(C(=O)Nc2nc(-c3ccccn3)cc3ccccc23)cc1C`, for which the minimal inhibitory concentration (MIC) was above 100 µM in test [1] and 0.39 µM (≈ 0.138 µg/mL) in test [2].

Consider `Cc1cccc(C(=O)Nc2nc(-c3ccccn3)cc3ccccc23)c1`, for which the MIC in test [1] was above 23 µM; in test [2], 0.09 µM (≈ 0.0305 µg/mL).

`Cc1cc(C)cc(C(=O)Nc2nc(-c3ccccn3)cc3ccccc23)c1`: the MIC was above 100 µM in test [1] and 0.39 µM (≈ 0.138 µg/mL) in test [2].

As a reminder, the MIC is the lowest concentration found to suppress growth.
